According to patent publication US20020192274A1, “pH sensitive liposomal drug delivery” (priority 2001, published 2002):

Legend:
[1] = tested on: TNF-α; experiment: LPS-induced TNF-α secretion by liver slices after in vivo ASO administration (ELISA); parameters: species or system rat; conditions: for inhibition of LPS-induced TNF-α production in liver slices: vs empty liposomes
Protocol: FIG. 4. In vivo efficacy of ASO TJU-2755 (SEQ. ID. NO: 1) against TNF-α in the liver: Effect of duration post-injection. Rats are intravenously injected with pH-sensitive liposomes encapsulated with TJU-2755 (1.5-1.75 mg/Kg body wt). At different times (24, 48 and 72 h) after ASO administration, LPS (50 μg/Kg body weight for 90 minutes) is administered intravenously (i.v.) and the animals are sacrificed 90 min after this challenge. Liver is excised, slices prepared and incubated for 2 h (infra). The amount of TNF-α released into the medium is measured by ELISA. The TNF-α values (bars) from the ASO-treated animals are normalized to control values (control=100) obtained from body weight-matched rats treated similarly except that they are injected with “empty” liposomes. Values indicated are means ±S.E. of (n) determinations. Number of animals, 24 h, n=3; 48 h, n=4, 72 h, n=3. * p<0.05 (vs Control).
FIG. 5. In vivo efficacy of ASO TJU-2755 (SEQ. ID. NO: 1) against TNF-α in the liver: Effect of multiple injections. Rats are injected with either one or two daily doses of ASO (1.5-1.75 mg/Kg body wt) encapsulated liposomes. […] The amount of TNF-α produced by liver slices is determined as described in legend to FIG. 4 (supra). Bars indicate the amount of TNF-α produced by ASO-treated animals, expressed as percent of controls injected with “empty” liposomes and are the means ±S.E. of n=4 for single dose and n=7 for two doses. *p<0.05, **p<0.01 vs control). The absolute values (Mean) of TNF-α for control and TNF-2755-treated livers (for two daily doses) were 17,748 and 7,500 pg/g liver, respectively.
Following the in vivo administration of LPS, the production of TNF-α in the liver is assessed by measuring the amount of TNF-α secreted by liver slices. Liver slices are prepared and incubated in culture medium according to the procedure described by Videla and Israel (Videla, L., Israel, Y., Biochem J. 118: 275-281, 1970) with modifications, which include the addition of insulin and fetal calf serum to the culture medium. Briefly, liver slices of uniform thickness (10×4×0.4 mm) are prepared from the mid lobe and initially rinsed in ice-cold William's E medium. The slices (2 slices per dish) are transferred to culture dishes (35 mm) containing 2 ml of fresh medium (90% William's E, 10% fetal calf serum and 2 units of insulin/100 ml) and incubated at 37° C. for 2 h. The amount of TNF-α released into the medium is measured (infra).
(§1) ELISA is conducted by using Cytoscreen KRC3012 kits (Biosource, Camarillo, Calif.) according to the manufacturer's specifications. Supernatants containing high TNF-α levels are diluted prior to the assay to assure assay results within the standard curve.
(§2) Rats are injected intravenously with two daily doses (1.5 mg/Kg body wt.) of ASO TJU-2755 (SEQ. ID. NO: 1) encapsulated in pH-stable liposomes and challenged with LPS (50 μg/Kg body wt.) at 48 h post injection. Animals are sacrificed 90 minutes post-LPS. The amount of TNF-α in plasma, as well as that secreted by liver slices, is determined exactly as described for pH-sensitive liposomes (supra) and legends to FIG. 4 and FIG. 5. Body-weight matched rats injected with two doses of “empty” liposomes and challenged similarly with LPS constituted the control group. All TNF-α values are normalized to the corresponding control groups (=100). Values are expressed as mean ±S.E of (n) determinations.

[2] = tested on: TNF-α; conditions: primary Kupffer cells ex vivo; cited from earlier work
[3] = tested on: TNF-α mRNA; experiment: Tissue levels of TNF-α mRNA by Northern hybridization; type: in vivo, rat; conditions: pH-sensitive liposomes, two daily doses 1.5 mg/Kg, LPS 48 h post ASO, normalized to GAPDH, vs empty liposomes
Protocol: FIG. 8. Effect of ASO TJU-2755 (SEQ. ID. NO: 1) in vivo on TNF-α mRNA. Rats are injected with two daily doses (1.5 mg/Kg body wt.) of ASO and injected with LPS (50 μg/Kg body wt.) 48 h post ASO administration as described in legend to FIG. 5. Liver (n=5) and spleen (n=4) are processed for the extraction of mRNA fractions. Steady-state levels of TNF-α mRNA are determined by Northern hybridization and normalized to the levels of GAPDH mRNA. Bars indicate mRNA (Means ±S.E) of (n) values from ASO-treated samples, expressed as percent of control values derived from rats treated with “empty” liposomes. *p<0.05, **p<0.01 (Vs control).
Liver and spleen samples (≈100 mg) are homogenized in 3 volumes of cold TRI Reagent (Molecular Research Center, Inc.). […] The intactness of total RNA is measured by agarose (1%) gel electrophoresis by visualizing the intactness of ribosomal RNA (28S, 18S). […] The purity of the isolated mRNA is monitored by analyzing the absorption ratios of 260 to 280 (nm), which always ranged from 1.8-2.0.
Samples of mRNA are run on 1% agarose gel electrophoresis, vacuum transferred (BIORAD Model 785 Vacuum Blotter) onto a nitrocellulose membrane (Amersham), and crosslinked (Statagene UV Stratalinker 2400). […] The autoradiograms are quantitated using an ultrascan laser densitometer. […]

[4] = tested on: TNF-α; experiment: Plasma TNF-α after LPS challenge following in vivo ASO administration (ELISA); parameters: species or system rat
Protocol: FIG. 6. […] Rats are injected with either one (n=3), two (n=8) or three (n=1) daily doses of TJU-2755 (SEQ. ID. NO: 1) and administered LPS (50 μg/Kg body wt.) at 48 h after the last injection of the antisense formulation as described in legend to FIG. 5. […] Plasma TNF-α is determined by ELISA. Bars indicate values from ASO-treated animals expressed as percent of corresponding controls (animals dosed with “empty liposomes”) and are the means ±S.E of (n) determinations. ***p<0.001 between rats injected two daily doses of ASO and controls. The absolute (Mean) values of TNF-α for control and TJU-2755 (SEQ. ID. NO: 1)-treated plasma samples (for two daily doses) were 34,375 and 9,731 (pg/ml plasma) respectively.
as §1, §2

[5] = pH-stable liposomes, two daily doses 1.5 mg/Kg i.v., LPS at 48 h, mean ± S.E

Substance: TJU-2755: phosphorothioate 21-mer antisense oligonucleotide 5′-TGATCCACTCCCCCCTCCACT-3′, complementary to the 3′-untranslated region of rat TNF-α mRNA (all phosphorothioate, sugars by position and methylation of C not given here)
- inhibitory effect on LPS-induced TNF-α production ([1]; ASO delivered with pH-stable liposomes (liver and plasma, Table 1)): no inhibitory effect
- inhibition of LPS-induced TNF-α production in liver slices ([1]; pH-sensitive liposomes, single i.v. dose, LPS 48 h post injection): ~30%
- inhibition of LPS-induced TNF-α production in liver slices ([1]; pH-sensitive liposomes, two daily doses, LPS 48 h after last injection): 50%
- TNF-α produced by liver slices, absolute mean ([1]; pH-sensitive liposomes, two daily doses, control 17,748): 7,500 pg/g liver
- TNF-α (%) liver, normalized to control (=100) [1, 5]: 103 ± 23%
- inhibition of LPS-stimulated TNF-α production [2]: > 90%
- reduction in TNF-α mRNA levels, spleen [3]: 36.5%
- reduction in steady-state levels of TNF-α mRNA, liver [3]: 35%
- reduction in plasma TNF-α levels ([4]; pH-sensitive liposomes, 2 doses, LPS 48 h after last injection, vs empty liposomes): 68%
- plasma TNF-α, absolute mean ([4]; pH-sensitive liposomes, two daily doses, control 34,375): 9,731 pg/ml plasma
- TNF-α (%) plasma, normalized to control (=100) [4, 5]: 93 ± 28%
